The assay addresses T1, MUSK (Homo sapiens, UniProt O15146).
T1 construct: purchased Thermo Fisher Scientific (Life Technologies) SelectScreen
Kind of assay: SelectScreen Z'LYTE. In kind it is biochemical. In short, it runs like this:
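Percent values come from Thermo SelectScreen profiling of NU5455, combining activity and binding assays. CSF1R was run in Z'LYTE format at Km app ATP, and CAMK1 in Adapta format with ATP listed at 10.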

T1 sequence (O15146 24-869): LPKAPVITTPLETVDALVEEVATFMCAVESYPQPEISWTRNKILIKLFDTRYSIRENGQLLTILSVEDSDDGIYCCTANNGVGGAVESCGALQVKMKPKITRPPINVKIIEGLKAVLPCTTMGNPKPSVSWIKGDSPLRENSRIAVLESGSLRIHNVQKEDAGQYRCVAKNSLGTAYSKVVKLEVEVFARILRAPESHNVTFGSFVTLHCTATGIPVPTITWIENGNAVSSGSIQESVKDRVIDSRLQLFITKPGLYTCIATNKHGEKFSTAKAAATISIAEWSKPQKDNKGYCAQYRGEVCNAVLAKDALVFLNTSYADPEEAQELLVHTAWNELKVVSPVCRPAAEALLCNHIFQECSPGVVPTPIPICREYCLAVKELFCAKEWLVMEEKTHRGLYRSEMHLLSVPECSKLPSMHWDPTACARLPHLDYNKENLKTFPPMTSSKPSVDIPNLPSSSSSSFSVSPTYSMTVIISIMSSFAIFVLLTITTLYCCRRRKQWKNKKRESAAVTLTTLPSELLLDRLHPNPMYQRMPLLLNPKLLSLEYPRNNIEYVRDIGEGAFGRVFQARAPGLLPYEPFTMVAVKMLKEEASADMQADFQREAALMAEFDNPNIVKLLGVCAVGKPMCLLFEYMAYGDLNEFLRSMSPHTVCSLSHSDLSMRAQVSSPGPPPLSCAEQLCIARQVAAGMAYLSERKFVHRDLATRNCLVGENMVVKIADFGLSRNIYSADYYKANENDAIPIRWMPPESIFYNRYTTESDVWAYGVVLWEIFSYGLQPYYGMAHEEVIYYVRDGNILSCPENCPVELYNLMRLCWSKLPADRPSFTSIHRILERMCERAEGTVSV

What is called inhibition is the relative decrease from the control value, in per cent. Higher therefore signals a strong effect. Take `CN(C(=O)CN1CCOCC1)c1ccc2sc3c(-c4cccc5c(=O)cc(N6CC7CCC(C6)O7)oc45)cccc3c2c1` [NU5455]: at 1 µM the inhibition was 10.3%.

Values taken from paper PMC6934184, “Selective DNA-PKcs inhibition extends the therapeutic index of localized radiotherapy and chemotherapy” (The Journal of Clinical Investigation, 2019).
